Measured values from US20130029964A1, “[5, 6] HETEROCYCLIC COMPOUND” (DAIICHI SANKYO COMPANY, LIMITED, priority 2010, published 2013).
Counter-ions that a name gives are not always drawn.

Test system: ST2 cells, murine bone marrow-derived stromal cells
Assay: Osteoblast differentiation test (ALP activity)
Format: cell-based
Details: Mus musculus, ST-2, 96 h, at 0.1 μg/mL, control group (0.1% DMSO) = 100%, four days of culturing, read-out: alkaline phosphatase activity
Protocol: ST2 cells, murine bone marrow-derived stromal cells, (obtained from RIKEN) were used.
In this test, α-MEM media (obtained from GIBCO BRL Cat. No. 10370-021) containing 10% (v/v) of inactivated calf serum (obtained from Hyclone Laboratories, Inc.) and 1% (v/v) of Penicillin-Streptomycin Liquid (obtained from GIBCO BRL Cat. No. 15140-122) (hereinbelow, abbreviated as 10%-FBS-αMEM) were used. In this test, all culturing was performed in a CO2 incubator (37° C., 95% humidity, 5% CO2).
The aforementioned cells were detached with 2 mL of a 0.25% trypsin solution (obtained from GIBCO BRL Cat. No. 15050-065) and dispersed in 10 mL of 10%-FBS-αMEM. Subsequently, the cells were collected by centrifugation (25° C., 800 rpm, five minutes). Then, a cell suspension containing 40000 of the cells/mL of 10%-FBS-αMEM was prepared. The cell suspension was then dispensed into 96-well plates (the product of Falcon), 100 μL per well, at a density of 4000 cells/well, followed by culturing for 24 hours. To the wells, except for the below-described well containing a control group, the compound was dispensed at final concentrations of 0.01, 0.03, 0.1, and 0.3 μg/ml. To the well of a control group, DMSO was dispensed at a final concentration of 0.1% (v/v). After four days of culturing, the activity of alkaline phosphatase (ALP) was measured in each group.
The measurement of ALP activity was performed as follows. That is, the medium in each well of the culture plates was completely removed. Each well was then washed by dispensing 100 μL of Dulbecco's phosphate buffer (obtained from GIBCO BRL Cat. No. 14190-144) and then removing it. A cell lysate solution containing 10 mM MgCl2 and 2% (v/v) TritonX-100 (Sigma) was prepared and dispensed at 50 μL/well, followed by stirring at room temperature for five minutes. An ALP substrate solution containing 50 mM diethanolamine (Wako Pure Chemical Industries, Ltd., Cat. No. 099-03112) and 20 mM p-nitrophenyl phosphate (Wako Pure Chemical Industries, Ltd., Cat. No. 147-02343) was prepared and dispensed at 50 μL/well, and the plates were left to stand at room temperature for 10 minutes. Subsequently, absorbance was measured by a microplate reader (Bio-Rad Laboratories, Inc.). Setting the measurement value of the control group of each plate at 100%, alkaline phosphatase activity (increase (%)) in the test compound-addition group was calculated, which was assessed as the degree of osteoblast differentiation.

OCCOCCNc1ccc(-n2cnc3ccccc32)cc1 [Example 3, 2-(2-{[4-(1H-Benzimidazol-1-yl)phenyl]amino}ethoxy)ethanol] was tested, and the activity at 0.1 µg/mL was no less than 200%.
OCCNc1ccc(-n2cnc3ccc(Cl)cc32)cc1 [Example 4, 2-{[4-(6-Chloro-1H-benzimidazol-1-yl)phenyl]amino}ethanol hydrochloride] was tested, and the activity at 0.1 µg/mL was no less than 200%.
In the case of COc1ccc2c(c1)ncn2-c1ccc(NCCO)cc1 [Example 5, 2-{[4-(5-Methoxy-1H-benzimidazol-1-yl)phenyl]amino}ethanol hydrochloride], the activity at 0.1 µg/mL is reported as no less than 200%.
COCCNc1ccc(-n2cnc3ccccc32)cc1 [Example 6] gave an activity at 0.1 µg/mL of no less than 200%.
OCCOc1ccc(-c2cnc3ccc(F)cn23)cc1 [Example 7, 2-[4-(6-Fluoroimidazo[1,2-a]pyridin-3-yl)phenoxy]ethanol] showed an activity at 0.1 µg/mL of no less than 200%.
Work on OCCOc1ccc(-c2cnc3ccc(-c4cc[nH]c4)cn23)cc1 [Example 8, 2-{4-[6-(1H-Pyrrol-3-yl)imidazo[1,2-a]pyridin-3-yl]phenoxy}ethanol] yielded an activity at 0.1 µg/mL of no less than 200%.
Work on OCCOc1ccc(-n2cnc3cc(-c4ccncc4)ccc32)cc1 [Example 9, 2-[4-(5-Pyridin-4-yl-1H-benzimidazol-1-yl)phenoxy]ethanol] yielded an activity at 0.1 µg/mL of no less than 200%.
Work on CC(=O)N1CC=C(c2ccn3c(N4CCC(OCCO)CC4)cnc3c2)CC1 [Example 10, 2-({1-[7-(1-Acetyl-1,2,3,6-tetrahydropyridin-4-yl)imidazo[1,2-a]pyridin-3-yl]piperidin-4-yl}oxy)ethanol hydrochloride] yielded an activity at 0.1 µg/mL of no less than 200%.
OCCOc1ccc(-c2cnn3cc(-c4ccncc4)ccc23)cc1 [Example 11, 2-[4-(6-Pyridin-4-ylpyrazolo[1,5-a]pyridin-3-yl)phenoxy]ethanol] was tested, and the activity at 0.1 µg/mL was no less than 200%.
Compound O=C(O)c1ccc(OCCOc2ccc(-n3cnc4ccccc43)cc2)cc1 [Example 12, 4-{2-[4-(1H-Benzimidazol-1-yl)phenoxy]ethoxy}benzoic acid hydrochloride] has an activity at 0.1 µg/mL of no less than 200%.
Compound O=C(O)c1ccc(-c2ccc3c(c2)ncn3-c2ccc(OCCO)cc2)cc1 [Example 13, 4-{1-[4-(2-Hydroxyethoxy)phenyl]-1H-benzimidazol-5-yl}benzoic acid] has an activity at 0.1 µg/mL of no less than 200%.
CC(=O)Nc1ccc(-c2ccc3c(c2)ncn3-c2ccc(OCCO)cc2)cc1 [Example 14, N-(4-{1-[4-(2-Hydroxyethoxy)phenyl]-1H-benzimidazol-5-yl}phenyl)acetamide] was tested, and the activity at 0.1 µg/mL was no less than 200%.
NC(=O)c1ccc(-c2ccc3c(c2)ncn3-c2ccc(OCCO)cc2)cc1 [Example 15, 4-{1-[4-(2-Hydroxyethoxy)phenyl]-1H-benzimidazol-5-yl}benzamide dihydrochloride] showed an activity at 0.1 µg/mL of no less than 200%.
Compound O=C(c1ccc(-c2ccc3c(c2)ncn3-c2ccc(OCCO)cc2)cn1)N1CCOCC1 [Example 16, 2-(4-{5-[6-(Morpholin-4-ylcarbonyl)pyridin-3-yl]-1H-benzimidazol-1-yl}phenoxy)ethanol] has an activity at 0.1 µg/mL of no less than 200%.
Work on O=C(c1ccc(-c2ccn3c(N4CCC(OCCOC5CCOCC5)CC4)cnc3c2)cc1)N1CCOCC1 [Example 17, 7-[4-(Morpholin-4-ylcarbonyl)phenyl]-3-{4-[2-(tetrahydro-2H-pyran-4-yloxy)ethoxy]piperidin-1-yl}imidazo[1,2-a]pyridine] yielded an activity at 0.1 µg/mL of no less than 200%.
NC(=O)c1ccc2ncc(-c3ccc(OCCOC4CCOCC4)cc3)n2c1 [Example 19, 3-{4-[2-(Tetrahydro-2H-pyran-4-yloxy)ethoxy]phenyl}imidazo[1,2-a]pyridine-6-carboxamide] gave an activity at 0.1 µg/mL of no less than 200%.
In the case of COc1ccc2ncc(-c3ccc(OCCOC4CCOCC4)cc3)n2c1 [Example 20, 6-Methoxy-3-{4-[2-(tetrahydro-2H-pyran-4-yloxy)ethoxy]phenyl}imidazo[1,2-a]pyridine], the activity at 0.1 µg/mL is reported as no less than 200%.
In the case of C#Cc1ccc2ncc(-c3ccc(OCCOC4CCOCC4)cc3)n2c1 [Example 21, 6-Ethynyl-3-{4-[2-(tetrahydro-2H-pyran-4-yloxy)ethoxy]phenyl}imidazo[1,2-a]pyridine], the activity at 0.1 µg/mL is reported as no less than 200%.
N#Cc1ccc2ncn(-c3ccc(OCCOC4CCOCC4)cc3)c2c1 [Example 24, 1-{4-[2-(Tetrahydro-2H-pyran-4-yloxy)ethoxy]phenyl}-1H-benzimidazole-6-carbonitrile hydrochloride] showed an activity at 0.1 µg/mL of no less than 200%.
In the case of FC(F)Oc1ccc2ncn(-c3ccc(OCCOC4CCOCC4)cc3)c2c1 [Example 25, 6-(Difluoromethoxy)-1-{4-[2-(tetrahydro-2H-pyran-4-yloxy)ethoxy]phenyl}-1H-benzimidazole hydrochloride], the activity at 0.1 µg/mL is reported as no less than 200%.
OCCNc1ccc(-n2cnc3cc(Cl)c(Cl)cc32)cc1 [Example 26] was tested, and the activity at 0.1 µg/mL was no less than 200%.
Compound COc1ccc2c(c1)ncn2-c1ccc(OCCO)cc1 [Example 27] has an activity at 0.1 µg/mL of no less than 200%.
COc1cc2ncn(-c3ccc(NCCO)cc3)c2cc1OC [Example 28] was tested, and the activity at 0.1 µg/mL was no less than 200%.
In the case of CCOc1ccc2c(c1)ncn2-c1ccc(OCCO)cc1 [Example 30], the activity at 0.1 µg/mL is reported as no less than 200%.
Work on OCCOc1ccc(-n2cnc3ccc(Cl)cc32)cc1 [Example 31] yielded an activity at 0.1 µg/mL of no less than 200%.
Compound CCOc1ccn2c(-c3ccc(OCCO)cc3)cnc2c1 [Example 34] has an activity at 0.1 µg/mL of no less than 200%.
Compound OCCOc1ccc(-n2cnc3cc4c(cc32)OCCO4)cc1 [Example 35] has an activity at 0.1 µg/mL of no less than 200%.
OCCOc1ccc(-n2cnc3cc(N4CCOCC4)ccc32)cc1 [Example 36] showed an activity at 0.1 µg/mL of no less than 200%.
With OCCOc1ccc(-n2cnc3cc(-c4cncnc4)ccc32)cc1 [Example 38] the activity at 0.1 µg/mL was no less than 200%.
In the case of CC(=O)N1CCN(c2ccc3c(c2)ncn3-c2ccc(OCCO)cc2)CC1 [Example 40], the activity at 0.1 µg/mL is reported as no less than 200%.
Work on OCCOc1ccc(-n2cnc3cc(-c4ccccc4)ccc32)cc1 [Example 41] yielded an activity at 0.1 µg/mL of no less than 200%.
With OCCOc1ccc(-n2cnc3cc(-c4cccnc4)ccc32)cc1 [Example 42] the activity at 0.1 µg/mL was no less than 200%.
Cc1cc(-c2ccc3c(c2)ncn3-c2ccc(OCCO)cc2)ccn1 [Example 43] was tested, and the activity at 0.1 µg/mL was no less than 200%.
c1cc(-c2ccc3c(c2)ncn3-c2ccc(OCCOC3CCOCC3)cc2)ccn1 [Example 44] was tested, and the activity at 0.1 µg/mL was no less than 200%.
In the case of CS(=O)(=O)N1CCC(OCCOc2ccc(-n3cnc4ccccc43)cc2)CC1 [Example 45], the activity at 0.1 µg/mL is reported as no less than 200%.
For CC(=O)N1CCC(OCCOc2ccc(-n3cnc4ccccc43)cc2)CC1 [Example 46], the activity at 0.1 µg/mL was no less than 200%.
For OCCOc1ccc(-n2cnc3ccc(F)cc32)cc1 [Example 47], the activity at 0.1 µg/mL was no less than 200%.
With Fc1ccc2ncn(-c3ccc(OCCOC4CCOCC4)cc3)c2c1 [Example 48] the activity at 0.1 µg/mL was no less than 200%.
c1cc(-n2cnc3cc4c(cc32)OCCO4)ccc1OCCOC1CCOCC1 [Example 49] showed an activity at 0.1 µg/mL of no less than 200%.
N#Cc1ccc(-c2ccc3c(c2)ncn3-c2ccc(OCCO)cc2)cc1 [Example 51] was tested, and the activity at 0.1 µg/mL was no less than 200%.
NS(=O)(=O)c1ccc(-c2ccc3c(c2)ncn3-c2ccc(OCCO)cc2)cc1 [Example 52] showed an activity at 0.1 µg/mL of no less than 200%.
Compound CS(=O)(=O)Nc1ccc(-c2ccc3c(c2)ncn3-c2ccc(OCCO)cc2)cc1 [Example 53] has an activity at 0.1 µg/mL of no less than 200%.
OCCOc1ccc(-n2cnc3cc(-c4cn[nH]c4)ccc32)cc1 [Example 54] was tested, and the activity at 0.1 µg/mL was no less than 200%.
O=C(COCCOc1ccc(-n2cnc3ccccc32)cc1)N1CCOCC1 [Example 56] was tested, and the activity at 0.1 µg/mL was no less than 200%.
OCCOc1ccc(-n2cnc3cc(-c4cc[nH]c4)ccc32)cc1 [Example 57] gave an activity at 0.1 µg/mL of no less than 200%.
Work on CS(=O)(=O)N1CCN(c2ccc3c(c2)ncn3-c2ccc(OCCO)cc2)CC1 [Example 59] yielded an activity at 0.1 µg/mL of no less than 200%.
CC(=O)N1CC=C(c2ccc3c(c2)ncn3-c2ccc(OCCO)cc2)CC1 [Example 60] gave an activity at 0.1 µg/mL of no less than 200%.
For CS(=O)(=O)N1CC=C(c2ccc3c(c2)ncn3-c2ccc(OCCO)cc2)CC1 [Example 61], the activity at 0.1 µg/mL was no less than 200%.
Work on CC(=O)n1ccc(-c2ccc3c(c2)ncn3-c2ccc(OCCO)cc2)c1 [Example 62] yielded an activity at 0.1 µg/mL of no less than 200%.
Compound Cn1cc(-c2ccc3c(c2)ncn3-c2ccc(OCCO)cc2)cn1 [Example 63] has an activity at 0.1 µg/mL of no less than 200%.
Compound OCCOc1ccc(-n2cnc3cc(-c4nccs4)ccc32)cc1 [Example 64] has an activity at 0.1 µg/mL of no less than 200%.
Cn1cc(-c2ccn3c(-c4ccc(OCCO)cc4)cnc3c2)cn1 [Example 65] gave an activity at 0.1 µg/mL of no less than 200%.
CC(=O)N1CC=C(c2ccn3c(-c4ccc(OCCO)cc4)cnc3c2)CC1 [Example 66] was tested, and the activity at 0.1 µg/mL was no less than 200%.
